# Assay: (§1) The drug is tested on WLS-006 corresponding to human gut metagenome with ENA study accession number: PRJEB37062 and ENA sample accession number: ERS12561741 for biotransformation under anaerobic condition. The drug concentrations were measured over 9 timepoints collected between 0 and 24 hours of incubation by liquid-chromatography-coupled mass spectrometry (LC–MS)
# Conditions: 2 µM
# Note: call rule not given here.
row,Bacterial Biotransformation,SMILES
1,Compound metabolized,CCN(CC)CCOCCOC(=O)C1(c2ccccc2)CCCC1.O=C(O)CC(O)(CC(=O)O)C(=O)O [CARBETAPENTANE CITRATE]
2,Compound metabolized,CCc1nn(CCCN2CCN(c3cccc(Cl)c3)CC2)c(=O)n1CCOc1ccccc1 [NEFAZODONE]
3,Compound NOT metabolized,O=C(Nc1ccccc1)OCC(CN1CCCCC1)OC(=O)Nc1ccccc1 (centres undefined) [DIPERODON]

# The remaining lines, values behind:
row,SMILES,Bacterial Biotransformation
1,COC(=O)Nc1nc2ccc(C(=O)c3ccccc3)cc2[nH]1 [MEBENDAZOLE],Compound metabolized
2,CC(C)(C(=O)O)c1ccc(C(O)CCCN2CCC(C(O)(c3ccccc3)c3ccccc3)CC2)cc1 (centres undefined) [FEXOFENADINE],Compound NOT metabolized
3,CN/C(=N/CCSCc1nc[nH]c1C)NC#N [CIMETIDINE],Compound metabolized
4,O=P(O)(O)O.c1ccc(CN(CC2=NCCN2)c2ccccc2)cc1 [ANTAZOLINE PHOSPHATE],Compound metabolized
5,Cc1ccnc2c1NC(=O)c1cccnc1N2C1CC1 [NEVIRAPINE],Compound NOT metabolized
6,Cc1nc(-c2ccc(OCC(C)C)c(C#N)c2)sc1C(=O)O [FEBUXOSTAT],Compound metabolized
7,COc1cc2nc(N3CCN(C(=O)c4ccco4)CC3)nc(N)c2cc1OC [PRAZOSIN],Compound NOT metabolized

# Assay: as §1, with “WLS-069” for “WLS-006”, “ERS12561748” for “ERS12561741”
# Conditions: 2 µM
row,Bacterial Biotransformation,SMILES
1,Compound metabolized,CCN(CC)CCOCCOC(=O)C1(c2ccccc2)CCCC1.O=C(O)CC(O)(CC(=O)O)C(=O)O [CARBETAPENTANE CITRATE]
2,Compound metabolized,CCc1nn(CCCN2CCN(c3cccc(Cl)c3)CC2)c(=O)n1CCOc1ccccc1 [NEFAZODONE]
3,Compound metabolized,O=C(Nc1ccccc1)OCC(CN1CCCCC1)OC(=O)Nc1ccccc1 (centres undefined) [DIPERODON]

# More lines, now with the values behind:
row,SMILES,Bacterial Biotransformation
1,COC(=O)Nc1nc2ccc(C(=O)c3ccccc3)cc2[nH]1 [MEBENDAZOLE],Compound metabolized
2,CC(C)(C(=O)O)c1ccc(C(O)CCCN2CCC(C(O)(c3ccccc3)c3ccccc3)CC2)cc1 (centres undefined) [FEXOFENADINE],Compound NOT metabolized
3,CN/C(=N/CCSCc1nc[nH]c1C)NC#N [CIMETIDINE],Compound metabolized
4,O=P(O)(O)O.c1ccc(CN(CC2=NCCN2)c2ccccc2)cc1 [ANTAZOLINE PHOSPHATE],Compound NOT metabolized
5,Cc1ccnc2c1NC(=O)c1cccnc1N2C1CC1 [NEVIRAPINE],Compound NOT metabolized
6,Cc1nc(-c2ccc(OCC(C)C)c(C#N)c2)sc1C(=O)O [FEBUXOSTAT],Compound metabolized

# Conditions: human gut metagenome, 24 h, 2 µM
row,Bacterial Biotransformation,SMILES
1,Compound metabolized,CCN(CC)CCOCCOC(=O)C1(c2ccccc2)CCCC1.O=C(O)CC(O)(CC(=O)O)C(=O)O [CARBETAPENTANE CITRATE]
2,Compound metabolized,CCc1nn(CCCN2CCN(c3cccc(Cl)c3)CC2)c(=O)n1CCOc1ccccc1 [NEFAZODONE]
3,Compound metabolized,O=C(Nc1ccccc1)OCC(CN1CCCCC1)OC(=O)Nc1ccccc1 (centres undefined) [DIPERODON]

# More lines, now with the values behind:
row,SMILES,Bacterial Biotransformation
1,COC(=O)Nc1nc2ccc(C(=O)c3ccccc3)cc2[nH]1 [MEBENDAZOLE],Compound metabolized
2,CC(C)(C(=O)O)c1ccc(C(O)CCCN2CCC(C(O)(c3ccccc3)c3ccccc3)CC2)cc1 (centres undefined) [FEXOFENADINE],Compound NOT metabolized
3,CN/C(=N/CCSCc1nc[nH]c1C)NC#N [CIMETIDINE],Compound metabolized
4,O=P(O)(O)O.c1ccc(CN(CC2=NCCN2)c2ccccc2)cc1 [ANTAZOLINE PHOSPHATE],Compound metabolized
5,Cc1ccnc2c1NC(=O)c1cccnc1N2C1CC1 [NEVIRAPINE],Compound metabolized
6,Cc1nc(-c2ccc(OCC(C)C)c(C#N)c2)sc1C(=O)O [FEBUXOSTAT],Compound metabolized
7,COc1cc2nc(N3CCN(C(=O)c4ccco4)CC3)nc(N)c2cc1OC [PRAZOSIN],Compound metabolized

# Assay: as §1, with “Z-009” for “WLS-006”, “pig” for “human”, “ERS12561809” for “ERS12561741”
# Conditions: 2 µM
row,Bacterial Biotransformation,SMILES
1,Compound metabolized,CCN(CC)CCOCCOC(=O)C1(c2ccccc2)CCCC1.O=C(O)CC(O)(CC(=O)O)C(=O)O [CARBETAPENTANE CITRATE]
2,Compound NOT metabolized,CCc1nn(CCCN2CCN(c3cccc(Cl)c3)CC2)c(=O)n1CCOc1ccccc1 [NEFAZODONE]
3,Compound metabolized,O=C(Nc1ccccc1)OCC(CN1CCCCC1)OC(=O)Nc1ccccc1 (centres undefined) [DIPERODON]

# The next lines start with the compound.
row,SMILES,Bacterial Biotransformation
1,COC(=O)Nc1nc2ccc(C(=O)c3ccccc3)cc2[nH]1 [MEBENDAZOLE],Compound metabolized
2,CC(C)(C(=O)O)c1ccc(C(O)CCCN2CCC(C(O)(c3ccccc3)c3ccccc3)CC2)cc1 (centres undefined) [FEXOFENADINE],Compound NOT metabolized
3,CN/C(=N/CCSCc1nc[nH]c1C)NC#N [CIMETIDINE],Compound NOT metabolized
4,O=P(O)(O)O.c1ccc(CN(CC2=NCCN2)c2ccccc2)cc1 [ANTAZOLINE PHOSPHATE],Compound NOT metabolized
5,Cc1ccnc2c1NC(=O)c1cccnc1N2C1CC1 [NEVIRAPINE],Compound NOT metabolized
6,Cc1nc(-c2ccc(OCC(C)C)c(C#N)c2)sc1C(=O)O [FEBUXOSTAT],Compound NOT metabolized
7,COc1cc2nc(N3CCN(C(=O)c4ccco4)CC3)nc(N)c2cc1OC [PRAZOSIN],Compound NOT metabolized

# Conditions: human gut metagenome, 24 h, 2 µM
# Remark: another data set of the same source
row,Bacterial Biotransformation,SMILES
1,Compound metabolized,CCN(CC)CCOCCOC(=O)C1(c2ccccc2)CCCC1.O=C(O)CC(O)(CC(=O)O)C(=O)O [CARBETAPENTANE CITRATE]
2,Compound metabolized,CCc1nn(CCCN2CCN(c3cccc(Cl)c3)CC2)c(=O)n1CCOc1ccccc1 [NEFAZODONE]
3,Compound metabolized,O=C(Nc1ccccc1)OCC(CN1CCCCC1)OC(=O)Nc1ccccc1 (centres undefined) [DIPERODON]

# Continued, compound first:
row,SMILES,Bacterial Biotransformation
1,COC(=O)Nc1nc2ccc(C(=O)c3ccccc3)cc2[nH]1 [MEBENDAZOLE],Compound metabolized
2,CC(C)(C(=O)O)c1ccc(C(O)CCCN2CCC(C(O)(c3ccccc3)c3ccccc3)CC2)cc1 (centres undefined) [FEXOFENADINE],Compound NOT metabolized
3,CN/C(=N/CCSCc1nc[nH]c1C)NC#N [CIMETIDINE],Compound NOT metabolized
4,O=P(O)(O)O.c1ccc(CN(CC2=NCCN2)c2ccccc2)cc1 [ANTAZOLINE PHOSPHATE],Compound NOT metabolized
5,Cc1ccnc2c1NC(=O)c1cccnc1N2C1CC1 [NEVIRAPINE],Compound NOT metabolized
6,Cc1nc(-c2ccc(OCC(C)C)c(C#N)c2)sc1C(=O)O [FEBUXOSTAT],Compound metabolized
7,COc1cc2nc(N3CCN(C(=O)c4ccco4)CC3)nc(N)c2cc1OC [PRAZOSIN],Compound metabolized

# Assay: as §1, with “WLS-077” for “WLS-006”, “ERS12561750” for “ERS12561741”
# Conditions: 2 µM
row,Bacterial Biotransformation,SMILES
1,Compound metabolized,CCN(CC)CCOCCOC(=O)C1(c2ccccc2)CCCC1.O=C(O)CC(O)(CC(=O)O)C(=O)O [CARBETAPENTANE CITRATE]
2,Compound NOT metabolized,CCc1nn(CCCN2CCN(c3cccc(Cl)c3)CC2)c(=O)n1CCOc1ccccc1 [NEFAZODONE]
3,Compound NOT metabolized,O=C(Nc1ccccc1)OCC(CN1CCCCC1)OC(=O)Nc1ccccc1 (centres undefined) [DIPERODON]

# The remaining lines, values behind:
row,SMILES,Bacterial Biotransformation
1,COC(=O)Nc1nc2ccc(C(=O)c3ccccc3)cc2[nH]1 [MEBENDAZOLE],Compound metabolized
2,CC(C)(C(=O)O)c1ccc(C(O)CCCN2CCC(C(O)(c3ccccc3)c3ccccc3)CC2)cc1 (centres undefined) [FEXOFENADINE],Compound NOT metabolized
3,CN/C(=N/CCSCc1nc[nH]c1C)NC#N [CIMETIDINE],Compound metabolized
4,O=P(O)(O)O.c1ccc(CN(CC2=NCCN2)c2ccccc2)cc1 [ANTAZOLINE PHOSPHATE],Compound NOT metabolized
5,Cc1ccnc2c1NC(=O)c1cccnc1N2C1CC1 [NEVIRAPINE],Compound NOT metabolized
6,Cc1nc(-c2ccc(OCC(C)C)c(C#N)c2)sc1C(=O)O [FEBUXOSTAT],Compound metabolized
7,COc1cc2nc(N3CCN(C(=O)c4ccco4)CC3)nc(N)c2cc1OC [PRAZOSIN],Compound NOT metabolized

# Conditions: human gut metagenome, 24 h, 2 µM
# Remark: another data set of the same source
row,Bacterial Biotransformation,SMILES
1,Compound metabolized,CCN(CC)CCOCCOC(=O)C1(c2ccccc2)CCCC1.O=C(O)CC(O)(CC(=O)O)C(=O)O [CARBETAPENTANE CITRATE]
2,Compound metabolized,CCc1nn(CCCN2CCN(c3cccc(Cl)c3)CC2)c(=O)n1CCOc1ccccc1 [NEFAZODONE]
3,Compound metabolized,O=C(Nc1ccccc1)OCC(CN1CCCCC1)OC(=O)Nc1ccccc1 (centres undefined) [DIPERODON]

# More lines, now with the values behind:
row,SMILES,Bacterial Biotransformation
1,COC(=O)Nc1nc2ccc(C(=O)c3ccccc3)cc2[nH]1 [MEBENDAZOLE],Compound metabolized
2,CC(C)(C(=O)O)c1ccc(C(O)CCCN2CCC(C(O)(c3ccccc3)c3ccccc3)CC2)cc1 (centres undefined) [FEXOFENADINE],Compound NOT metabolized
3,CN/C(=N/CCSCc1nc[nH]c1C)NC#N [CIMETIDINE],Compound metabolized
4,O=P(O)(O)O.c1ccc(CN(CC2=NCCN2)c2ccccc2)cc1 [ANTAZOLINE PHOSPHATE],Compound metabolized
5,Cc1ccnc2c1NC(=O)c1cccnc1N2C1CC1 [NEVIRAPINE],Compound metabolized
6,Cc1nc(-c2ccc(OCC(C)C)c(C#N)c2)sc1C(=O)O [FEBUXOSTAT],Compound metabolized
7,COc1cc2nc(N3CCN(C(=O)c4ccco4)CC3)nc(N)c2cc1OC [PRAZOSIN],Compound metabolized

# Conditions: human gut metagenome, 24 h, 2 µM
# Remark: another data set of the same source
row,Bacterial Biotransformation,SMILES
1,Compound metabolized,CCN(CC)CCOCCOC(=O)C1(c2ccccc2)CCCC1.O=C(O)CC(O)(CC(=O)O)C(=O)O [CARBETAPENTANE CITRATE]
2,Compound metabolized,CCc1nn(CCCN2CCN(c3cccc(Cl)c3)CC2)c(=O)n1CCOc1ccccc1 [NEFAZODONE]
3,Compound NOT metabolized,O=C(Nc1ccccc1)OCC(CN1CCCCC1)OC(=O)Nc1ccccc1 (centres undefined) [DIPERODON]

# Further lines, the compound ahead of its results:
row,SMILES,Bacterial Biotransformation
1,COC(=O)Nc1nc2ccc(C(=O)c3ccccc3)cc2[nH]1 [MEBENDAZOLE],Compound metabolized
2,CC(C)(C(=O)O)c1ccc(C(O)CCCN2CCC(C(O)(c3ccccc3)c3ccccc3)CC2)cc1 (centres undefined) [FEXOFENADINE],Compound NOT metabolized
3,CN/C(=N/CCSCc1nc[nH]c1C)NC#N [CIMETIDINE],Compound NOT metabolized
4,O=P(O)(O)O.c1ccc(CN(CC2=NCCN2)c2ccccc2)cc1 [ANTAZOLINE PHOSPHATE],Compound NOT metabolized
5,Cc1ccnc2c1NC(=O)c1cccnc1N2C1CC1 [NEVIRAPINE],Compound NOT metabolized
6,Cc1nc(-c2ccc(OCC(C)C)c(C#N)c2)sc1C(=O)O [FEBUXOSTAT],Compound metabolized
7,COc1cc2nc(N3CCN(C(=O)c4ccco4)CC3)nc(N)c2cc1OC [PRAZOSIN],Compound NOT metabolized

# Conditions: human gut metagenome, 24 h, 2 µM
# Remark: another data set of the same source
row,Bacterial Biotransformation,SMILES
1,Compound metabolized,CCN(CC)CCOCCOC(=O)C1(c2ccccc2)CCCC1.O=C(O)CC(O)(CC(=O)O)C(=O)O [CARBETAPENTANE CITRATE]
2,Compound NOT metabolized,CCc1nn(CCCN2CCN(c3cccc(Cl)c3)CC2)c(=O)n1CCOc1ccccc1 [NEFAZODONE]
3,Compound NOT metabolized,O=C(Nc1ccccc1)OCC(CN1CCCCC1)OC(=O)Nc1ccccc1 (centres undefined) [DIPERODON]

# The next lines start with the compound.
row,SMILES,Bacterial Biotransformation
1,COC(=O)Nc1nc2ccc(C(=O)c3ccccc3)cc2[nH]1 [MEBENDAZOLE],Compound metabolized
2,CC(C)(C(=O)O)c1ccc(C(O)CCCN2CCC(C(O)(c3ccccc3)c3ccccc3)CC2)cc1 (centres undefined) [FEXOFENADINE],Compound NOT metabolized
3,CN/C(=N/CCSCc1nc[nH]c1C)NC#N [CIMETIDINE],Compound NOT metabolized
4,O=P(O)(O)O.c1ccc(CN(CC2=NCCN2)c2ccccc2)cc1 [ANTAZOLINE PHOSPHATE],Compound metabolized
5,Cc1ccnc2c1NC(=O)c1cccnc1N2C1CC1 [NEVIRAPINE],Compound NOT metabolized
6,Cc1nc(-c2ccc(OCC(C)C)c(C#N)c2)sc1C(=O)O [FEBUXOSTAT],Compound metabolized
7,COc1cc2nc(N3CCN(C(=O)c4ccco4)CC3)nc(N)c2cc1OC [PRAZOSIN],Compound NOT metabolized

# — ChEMBL document CHEMBL5724914, “Linking interpersonal differences in gut microbiota composition and drug biotransformation activity” (2024)
